Measurements from the SangsterLogP compilation.

Experiment: method code SF-AS, from PMID: 744242
Settings: pH 5.6

Point of comparison: `CCCC(C)n1nnc2ccccc21` (stereo not drawn), logD 2.95. Against it:
- CCOC(=O)CCCCn1nc2ccccc2n1 — within 0.2 log units, 2.85
- CCCCCCn1nc2ccccc2n1 — higher, 4.24
- CCOC(=O)Cn1nc2ccccc2n1 — lower, 1.85
- CCOC(=O)CCCCCn1nc2ccccc2n1 — higher, 3.17
- NC(=O)Cn1nc2ccccc2n1 — lower, 0.28
- CCCCC(C)n1nnc2ccccc21 (stereo not drawn) — higher, 3.44
- Cn1nnc2ccccc21 — lower, 1.13
- CCOC(=O)CCCCCn1nnc2ccccc21 — lower, 2.68
- NC(=O)CCn1nc2ccccc2n1 — lower, 0.66
- CCCCC(C)n1nc2ccccc2n1 (stereo not drawn) — higher, 3.78
- OCCn1nnc2ccccc21 — lower, 0.5
- CCn1nnc2ccccc21 — lower, 1.58
- CCCCCCn1nnc2ccccc21 — higher, 3.7
- CCCn1nc2ccccc2n1 — lower, 2.53
- OCCCn1nnc2ccccc21 — lower, 0.91
- CCOC(=O)CCn1nc2ccccc2n1 — lower, 2.12
- OCCn1nc2ccccc2n1 — lower, 0.92
- OCCCn1nc2ccccc2n1 — lower, 1.4
- CCC(C)n1nnc2ccccc21 (stereo not drawn) — lower, 2.31
- NC(=O)Cn1nnc2ccccc21 — lower, -0.11
- CCOC(=O)CCCCn1nnc2ccccc21 — lower, 2.2
- CCCCn1nc2ccccc2n1 — within 0.2 log units, 3.12
- Cn1nc2ccccc2n1 — lower, 1.64
- CCCCCn1nnc2ccccc21 — higher, 3.22
- CCn1nc2ccccc2n1 — lower, 2.1
- CCCC(C)n1nc2ccccc2n1 (stereo not drawn) — higher, 3.42
- CCCCCn1nc2ccccc2n1 — higher, 3.63
- CCCCn1nnc2ccccc21 — lower, 2.57
- CCC(C)n1nc2ccccc2n1 (stereo not drawn) — the same, 2.95
- CCOC(=O)CCCn1nc2ccccc2n1 — lower, 2.41
- NC(=O)CCCn1nc2ccccc2n1 — lower, 0.78
- NC(=O)CCCn1nnc2ccccc21 — lower, 0.37
- CCCn1nnc2ccccc21 — lower, 2.13
- NC(=O)CCCCCn1nc2ccccc2n1 — lower, 1.41
- NC(=O)CCCCn1nc2ccccc2n1 — lower, 1.01
- NC(=O)CCCCn1nnc2ccccc21 — lower, 0.58
- CC(C)n1nc2ccccc2n1 — lower, 2.54
- CCOC(=O)Cn1nnc2ccccc21 — lower, 1.3
- CC(C)n1nnc2ccccc21 — lower, 1.98
- CCOC(=O)CCn1nnc2ccccc21 — lower, 1.6
- CCOC(=O)CCCn1nnc2ccccc21 — lower, 1.86
- NC(=O)CCCCCn1nnc2ccccc21 — lower, 0.79
